Measured values published in PubChem BioAssay (NCI).
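Exposure lasted 48 hours, with cells grown in 96-well plates and compounds tested at five concentrations. At the GI50, growth is halved. TGI: concentration producing complete growth inhibition.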

Columns and labels:
Assay in all cases: inhibition of tumour cell growth, NCI panel, 48 h
[1] = tested on: SK-OV-3 ovarian
[2] = tested on: HCT-116 colon
[3] = tested on: M14 melanoma
[4] = tested on: RPMI-8226 leukemia
[5] = tested on: U251 CNS
[6] = tested on: HOP-62 NSCLC
[7] = tested on: UO-31 renal
[8] = tested on: PC-3 prostate
[9] = tested on: MDA-MB-231 breast
[10] = tested on: NCI/ADR-RES ovarian

With COc1ccc2c(c1)CC1c3c(ccc(OC)c3O)CC2N1C (stereo unspecified) the TGI [1] was > 100 µM, the TGI [2] was 47.3 µM and the TGI [3] was 32 µM. For the same molecule, the TGI [4] was 53.2 µM, the TGI [5] was > 59.3 µM and the TGI [6] was > 100 µM. For the same molecule, the TGI [7] was > 100 µM.
CC(=O)[CH-]C(=O)c1ccccc1.CC(=O)[CH-]C(=O)c1ccccc1.Cl.[O-]c1ccccn1.[O-]c1ccccn1.[Ti+4] was tested, and the GI50 [1] was > 100 µM, the TGI [1] was > 100 µM and the GI50 [2] was > 100 µM. For the same molecule, the TGI [2] was > 100 µM, the GI50 [3] was > 100 µM and the TGI [3] was > 100 µM. The GI50 [4] was > 100 µM, the TGI [4] was > 100 µM and the GI50 [5] was > 100 µM. The TGI [5] was > 100 µM, the GI50 [6] was > 100 µM and the TGI [6] was > 100 µM. For the same molecule, the GI50 [7] was > 100 µM and the TGI [7] was > 100 µM.
In the case of CNS(=O)(=O)NN(C)S(=O)(=O)c1ccc2ccccc2c1, the TGI [1] was > 100 µM, the TGI [2] was > 100 µM and the TGI [3] was > 100 µM. The TGI [4] was > 100 µM, the TGI [5] was > 100 µM and the TGI [6] was > 100 µM. The TGI [7] was > 100 µM.
For CC1C[C@]2(C[C@@H](C)C(=O)O2)O[C@@H]2CC3(C)[C@@H]4CCC5C(C)(C)OC(=O)C[C@H]6OO[C@]4(CC[C@]3(C)C12)CC56O (stereo partly specified), the TGI [1] was > 100 µM, the TGI [3] was > 100 µM and the TGI [4] was > 100 µM. For the same molecule, the TGI [5] was > 100 µM and the TGI [7] was > 100 µM.
With O=[N+]([O-])c1ccc(/C=C/c2csnn2)cc1 the TGI [1] was > 100 µM, the TGI [2] was > 100 µM and the TGI [3] was > 100 µM. The TGI [4] was > 100 µM, the TGI [5] was > 100 µM and the TGI [6] was > 100 µM. For the same molecule, the TGI [7] was > 100 µM.
With CC1(C)C=N[N+]2(C)C3C=CC(CC3)C12 (stereo unspecified) the TGI [1] was > 100 µM, the TGI [2] was > 100 µM and the TGI [3] was > 100 µM. For the same molecule, the TGI [4] was > 100 µM, the TGI [5] was > 100 µM and the TGI [6] was > 100 µM. The TGI [7] was > 100 µM.
For Cc1ccc(NC(=S)SCCC(=O)O)cc1, the TGI [2] was > 100 µM, the TGI [3] was > 100 µM and the TGI [4] was > 100 µM. The TGI [5] was > 100 µM, the TGI [6] was > 100 µM and the TGI [7] was > 100 µM.
For COc1cc2c(cc1OC)NC(=O)NC(Cc1ccc3c(c1)OCO3)CC2 (stereo unspecified), the TGI [1] was > 100 µM, the TGI [3] was > 100 µM and the TGI [4] was > 100 µM. The TGI [6] was > 100 µM and the TGI [7] was > 100 µM.
CCCCCCCCCCCCCCCC(=O)OCC1OC(OC)C2NP(=O)(N(CCCl)CCCl)OC1C2O (stereo unspecified) gave a TGI [1] of 56.1 µM, a TGI [2] of 11.5 µM and a TGI [3] of 18.1 µM. For the same molecule, the TGI [4] was 15.9 µM, the TGI [5] was > 19.5 µM and the TGI [8] was 18.9 µM. The TGI [6] was 10.8 µM and the TGI [7] was 35.1 µM.
C=CC1(NS(=O)(=O)c2ccc(C)cc2)CCC(C(C)(C)C)CC1 (stereo unspecified) was tested, and the TGI [1] was > 100 µM, the TGI [2] was > 100 µM and the TGI [3] was > 100 µM. For the same molecule, the TGI [4] was > 100 µM, the TGI [5] was > 100 µM and the TGI [6] was > 100 µM. For the same molecule, the TGI [7] was > 100 µM.
For Cc1cccc(N2C(=O)C(=O)C(c3nc4ccccc4s3)/C(=N/NC(=S)NN)C2=O)c1C (stereo unspecified), the TGI [1] was > 100 µM, the TGI [2] was > 100 µM and the TGI [3] was > 100 µM. The TGI [4] was > 100 µM, the TGI [5] was > 100 µM and the TGI [6] was > 100 µM. The TGI [7] was > 100 µM.
In the case of CC1=C(Cl)C=CP(=O)(OC(C)C)C1 (stereo unspecified), the TGI [2] was > 100 µM, the TGI [3] was > 100 µM and the TGI [4] was > 100 µM. The TGI [5] was > 100 µM, the TGI [6] was > 100 µM and the TGI [7] was > 100 µM.
For CCOC(=O)[C@H]1Nc2ccc([N+](=O)[O-])cc2C2c3ccccc3CC21 (stereo partly specified), the TGI [2] was 37.9 µM, the TGI [3] was 34.3 µM and the TGI [4] was > 100 µM. It also gave a TGI [5] of 33.1 µM, a TGI [6] of 39 µM and a TGI [7] of 44 µM.
CCCCNC(=O)Oc1ccc(/C(=C(/C)Cc2ccc(OC)cc2)c2ccc(OCCN3CCCC3)cc2)cc1 was tested, and the GI50 [1] was 6.14 µM, the TGI [1] was 20.4 µM and the GI50 [2] was 1.55 µM. The TGI [2] was 2.98 µM, the GI50 [3] was 1.81 µM and the TGI [3] was 3.48 µM. It also gave a GI50 [4] of 2.2 µM, a TGI [4] of 4.85 µM and a GI50 [9] of 1.87 µM. The TGI [9] was 3.49 µM, the GI50 [5] was 1.82 µM and the TGI [5] was 3.31 µM. It also gave a GI50 [10] of 3.11 µM, a TGI [10] of 11.6 µM and a GI50 [6] of 2.65 µM. For the same molecule, the TGI [6] was 11.3 µM, the GI50 [7] was 1.65 µM and the TGI [7] was 3.22 µM.
Work on O=[n+]1c2ccccc2n([O-])c2cc(Cl)ccc21 yielded a GI50 [1] of 7.12 µM, a TGI [1] of 20.4 µM and a GI50 [2] of 3.37 µM. It also gave a TGI [2] of 12.7 µM, a GI50 [3] of 10.7 µM and a TGI [3] of 29.9 µM. The GI50 [4] was 2.45 µM, the TGI [4] was 5.98 µM and the GI50 [9] was 4.21 µM. The TGI [9] was 22.2 µM, the GI50 [5] was 2.71 µM and the TGI [5] was 12 µM. It also gave a GI50 [10] of 4.31 µM, a TGI [10] of 40.3 µM and a GI50 [6] of 3.15 µM. For the same molecule, the TGI [6] was 10.9 µM, the GI50 [7] was 3.52 µM and the TGI [7] was 15 µM.
In the case of Clc1ccc2nc(-c3ccccc3)nc(Cl)c2c1, the TGI [1] was 36.8 µM, the TGI [2] was > 100 µM and the TGI [4] was > 100 µM. The TGI [5] was > 100 µM, the TGI [6] was 79.9 µM and the TGI [7] was > 100 µM.
In the case of CCCCN[C@H]1C2C3CC4C5CC(C42)C1(C)C53 (stereo partly specified), the TGI [1] was > 100 µM, the TGI [2] was > 100 µM and the TGI [3] was > 100 µM. For the same molecule, the TGI [4] was > 100 µM, the TGI [5] was > 100 µM and the TGI [6] was > 100 µM. The TGI [7] was > 100 µM.
